In patent US20220257775A1 (GLYCOMIMETICS, INC., priority 2019, published 2022):

molecular target: T1, recombinant human E-selectin/CD63E Fc Chimera (Homo sapiens, UniProt P16581); assay: E-Selectin Activity - Analysis by SPR; assay type: binding; conditions: Biacore X100, E-selectin captured on anti-human IgG (Fc) chip
T1 construct: Fc (human IgG Fc fusion partner); purchased R & D systems
Protocol: Surface Plasmon Resonance (SPR) measurements were performed on a Biacore X100 instrument (GE Healthcare). A CM5 sensor chip (GE Healthcare) was used for the interaction between E-selectin and GMI compound. Anti-human IgG (Fc) antibody (GE Healthcare) was immobilized onto the chip by amine coupling according to the manufacturer's instructions. In brief, after a 7-min injection (flow rate of 5 μl/min) of 1:1 mixture of N-ethyl-N′-(3-dimethylaminopropyl) carbodiimide hydrochloride and N-hydroxysuccinimide, anti-human IgG (Fc) antibody (25 μg/ml in 10 mM sodium acetate buffer, pH 5.0) was injected using a 6-min injection at 5 μl/min. Remaining activated groups were blocked by injecting 1 M ethanolamine/HCl, pH 8.5. The recombinant human E-selectin/CD63E Fc Chimera (50 μg/ml) (R & D systems) was injected into the experimental cell until 6000-7000 RU was captured onto the antibody surface. No recombinant human E-selectin/CD63E was injected into the control cell. Increasing concentrations of GMI compound samples were injected at 30 μl/min into both flow cells and all sensorgrams were recorded against the control. Regeneration of the anti-human IgG (Fc) surface was achieved by injecting 3M magnesium chloride, followed by 50 mM sodium hydroxide. Data were analyzed using Biacore X100 evaluation/BIA evaluation 4.1.1 software (GE Healthcare) and Graphad prism 6 software.

T1 sequence (P16581 with tags, fused parts or gaps limits assumed): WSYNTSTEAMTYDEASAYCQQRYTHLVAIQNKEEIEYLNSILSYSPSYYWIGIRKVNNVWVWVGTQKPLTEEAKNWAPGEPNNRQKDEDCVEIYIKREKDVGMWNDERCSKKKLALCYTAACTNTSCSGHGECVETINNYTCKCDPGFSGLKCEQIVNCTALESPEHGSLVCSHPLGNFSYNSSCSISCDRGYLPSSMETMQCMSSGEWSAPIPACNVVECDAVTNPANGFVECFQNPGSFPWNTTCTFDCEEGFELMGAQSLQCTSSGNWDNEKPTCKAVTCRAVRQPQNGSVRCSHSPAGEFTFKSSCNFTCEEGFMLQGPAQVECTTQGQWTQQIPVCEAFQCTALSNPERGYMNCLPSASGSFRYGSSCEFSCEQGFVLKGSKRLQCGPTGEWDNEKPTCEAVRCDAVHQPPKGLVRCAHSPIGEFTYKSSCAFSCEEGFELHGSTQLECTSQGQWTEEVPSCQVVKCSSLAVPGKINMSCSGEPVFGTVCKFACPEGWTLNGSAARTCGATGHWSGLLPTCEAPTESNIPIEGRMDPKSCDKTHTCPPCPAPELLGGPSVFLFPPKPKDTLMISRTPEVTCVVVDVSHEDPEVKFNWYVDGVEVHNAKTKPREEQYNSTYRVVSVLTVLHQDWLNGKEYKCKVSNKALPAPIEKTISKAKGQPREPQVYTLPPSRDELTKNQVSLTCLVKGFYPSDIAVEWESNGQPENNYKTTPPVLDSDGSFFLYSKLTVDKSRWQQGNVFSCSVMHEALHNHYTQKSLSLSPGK

First: CC[C@H]1C[C@@H](C(=O)NCCNC(=O)CCOCCOCCOCCOCCOCCOCCOCCOCCOCCOCCC(=O)NCCNC(=O)[C@@H]2C[C@H](CC)[C@@H](O[C@@H]3O[C@@H](C)[C@@H](O)[C@@H](O)[C@@H]3O)[C@H](O[C@@H]3O[C@H](CO)[C@H](O)[C@H](O[C@@H](CC4CCCCC4)C(=O)N(C)C)[C@H]3NC(C)=O)C2)C[C@@H](O[C@@H]2O[C@H](CO)[C@H](O)[C@H](O[C@@H](CC3CCCCC3)C(=O)N(C)C)[C@H]2NC(C)=O)[C@@H]1O[C@@H]1O[C@@H](C)[C@@H](O)[C@@H](O)[C@@H]1O [Compound 21]
Second: CC[C@H]1C[C@@H](C(=O)NCCNC(=O)CCOCCOCCOCCOCCOCCOCCOCCOCCOCCOCCC(=O)NCCNC(=O)[C@@H]2C[C@H](CC)[C@@H](O[C@@H]3O[C@@H](C)[C@@H](O)[C@@H](O)[C@@H]3O)[C@H](O[C@@H]3O[C@H](CO)[C@H](O)[C@H](O[C@@H](CC4CCCCC4)C(=O)O)[C@H]3NC(C)=O)C2)C[C@@H](O[C@@H]2O[C@H](CO)[C@H](O)[C@H](O[C@@H](CC3CCCCC3)C(=O)O)[C@H]2NC(C)=O)[C@@H]1O[C@@H]1O[C@@H](C)[C@@H](O)[C@@H](O)[C@@H]1O [Compound 15]
The Kd of the first is 3.1-fold higher: 18.3 nM for the first, 6 nM for the second. The second binds more tightly here.

Going from `CC[C@H]1C[C@@H](C(=O)OC)C[C@@H](O[C@@H]2O[C@H](CO)[C@H](O)[C@H](O[C@@H](CC3CCCCC3)C(=O)O)[C@H]2NC(C)=O)[C@@H]1O[C@@H]1O[C@@H](C)[C@@H](O)[C@@H](O)[C@@H]1O` [Compound 3, reference compound] to `CC[C@H]1CC(C(=O)NCCNC(=O)CCC(=O)NCCNC(=O)[C@@H]2C[C@H](CC)[C@@H](O[C@@H]3O[C@@H](C)[C@@H](O)[C@@H](O)[C@@H]3O)[C@H](O[C@@H]3O[C@H](CO)[C@H](O)[C@H](O[C@@H](CC4CCCCC4)C(=O)O)[C@H]3NC(C)=O)C2)C[C@@H](O[C@@H]2O[C@H](CO)[C@H](O)[C@H](O[C@@H](CC3CCCCC3)C(=O)O)[C@H]2NC(C)=O)[C@@H]1O[C@@H]1O[C@@H](C)[C@@H](O)[C@@H](O)[C@@H]1O` (stereo partly shown) [Compound 19], the Kd falls from 2260 nM to 10.2 nM (220-fold).

`CC[C@H]1C[C@@H](C(=O)NCCNC(=O)CCOCCOCCC(=O)NCCNC(=O)[C@@H]2C[C@H](CC)[C@@H](O[C@@H]3O[C@@H](C)[C@@H](O)[C@@H](O)[C@@H]3O)[C@H](O[C@@H]3O[C@H](CO)[C@H](O)[C@H](O[C@@H](CC4CCCCC4)C(=O)N4CCC4)[C@H]3NC(C)=O)C2)C[C@@H](O[C@@H]2O[C@H](CO)[C@H](O)[C@H](O[C@@H](CC3CCCCC3)C(=O)N3CCC3)[C@H]2NC(C)=O)[C@@H]1O[C@@H]1O[C@@H](C)[C@@H](O)[C@@H](O)[C@@H]1O` [Compound 25] and `CC[C@H]1C[C@@H](C(=O)NCCNC(=O)CCOCCOCCOCCOCCC(=O)NCCNC(=O)[C@@H]2C[C@H](CC)[C@@H](O[C@@H]3O[C@@H](C)[C@@H](O)[C@@H](O)[C@@H]3O)[C@H](O[C@@H]3O[C@H](CO)[C@H](O)[C@H](O[C@@H](CC4CCCCC4)C(=O)N4CCC4)[C@H]3NC(C)=O)C2)C[C@@H](O[C@@H]2O[C@H](CO)[C@H](O)[C@H](O[C@@H](CC3CCCCC3)C(=O)N3CCC3)[C@H]2NC(C)=O)[C@@H]1O[C@@H]1O[C@@H](C)[C@@H](O)[C@@H](O)[C@@H]1O` [Compound 23] are within 1.5-fold of each other in Kd: 3 nM for the first, 2.8 nM for the second.

First: CC[C@H]1C[C@@H](C(=O)NCCNC(=O)CCOCCOCCOCCOCCOCCOCCOCCOCCOCCOCCOCCOCCOCCC(=O)NCCNC(=O)[C@@H]2C[C@H](CC)[C@@H](O[C@@H]3O[C@@H](C)[C@@H](O)[C@@H](O)[C@@H]3O)[C@H](O[C@@H]3O[C@H](CO)[C@H](O)[C@H](O[C@@H](CC4CCCCC4)C(=O)O)[C@H]3NC(C)=O)C2)C[C@@H](O[C@@H]2O[C@H](CO)[C@H](O)[C@H](O[C@@H](CC3CCCCC3)C(=O)O)[C@H]2NC(C)=O)[C@@H]1O[C@@H]1O[C@@H](C)[C@@H](O)[C@@H](O)[C@@H]1O [Compound 14]
Second: CC[C@H]1C[C@@H](C(=O)NCCNC(=O)CCOCCOCCOCCOCCOCCOCCOCCOCCOCCOCCC(=O)NCCNC(=O)[C@@H]2C[C@H](CC)[C@@H](O[C@@H]3O[C@@H](C)[C@@H](O)[C@@H](O)[C@@H]3O)[C@H](O[C@@H]3O[C@H](CO)[C@H](O)[C@H](O[C@@H](CC4CCCCC4)C(=O)N4CCC4)[C@H]3NC(C)=O)C2)C[C@@H](O[C@@H]2O[C@H](CO)[C@H](O)[C@H](O[C@@H](CC3CCCCC3)C(=O)N3CCC3)[C@H]2NC(C)=O)[C@@H]1O[C@@H]1O[C@@H](C)[C@@H](O)[C@@H](O)[C@@H]1O [Compound 20]
The Kd of the first is 8.2-fold higher: 6.6 nM for the first, 0.8 nM for the second. The second binds more tightly here.

Compared with `CCC1CC(C(=O)NCCNC(=O)c2cn(CCOCCC(=O)NCCCC[C@H](NC(=O)CCOCCn3cc(C(=O)NCCNC(=O)C4CC(CC)[C@@H](O[C@@H]5OC(C)[C@@H](O)[C@H](O)C5O)[C@H](O[C@@H]5O[C@@H](CO)[C@H](O)C(O[C@@H](CC6CCCCC6)C(=O)O)C5NC(C)=O)C4)nn3)C(=O)O)nn2)C[C@@H](O[C@@H]2O[C@@H](CO)[C@H](O)C(O[C@@H](CC3CCCCC3)C(=O)O)C2NC(C)=O)[C@@H]1O[C@@H]1OC(C)[C@@H](O)[C@H](O)C1O` (stereo partly shown) [Compound 38], `CCC1CC(C(=O)NCCNC(=O)c2cn(CCOCCOCCOCCn3cc(C(=O)NCCNC(=O)C4CC(CC)C(OC5OC(C)C(O)C(O)C5O)C(OC5OC(CO)C(O)C(OC(CC6CCCCC6)C(=O)N6CCC6)C5NC(C)=O)C4)nn3)nn2)CC(OC2OC(CO)C(O)C(OC(CC3CCCCC3)C(=O)N3CCC3)C2NC(C)=O)C1OC1OC(C)C(O)C(O)C1O` (stereo not shown) [Compound 29] is 2-fold lower in Kd: 6.4 nM for the first, 3.2 nM for the second.

`CC[C@H]1C[C@@H](C(=O)NCCNC(=O)CCOCCOCCOCCOCCOCCOCCC(=O)NCCNC(=O)[C@@H]2C[C@H](CC)[C@@H](O[C@@H]3O[C@@H](C)[C@@H](O)[C@@H](O)[C@@H]3O)[C@H](O[C@@H]3O[C@H](CO)[C@H](O)[C@H](O[C@@H](CC4CCCCC4)C(=O)O)[C@H]3NC(C)=O)C2)C[C@@H](O[C@@H]2O[C@H](CO)[C@H](O)[C@H](O[C@@H](CC3CCCCC3)C(=O)O)[C@H]2NC(C)=O)[C@@H]1O[C@@H]1O[C@@H](C)[C@@H](O)[C@@H](O)[C@@H]1O` [Compound 16] and `CC[C@H]1C[C@@H](C(=O)NCCNC(=O)CCOCCOCCOCCOCCC(=O)NCCNC(=O)[C@@H]2C[C@H](CC)[C@@H](O[C@@H]3O[C@@H](C)[C@@H](O)[C@@H](O)[C@@H]3O)[C@H](O[C@@H]3O[C@H](CO)[C@H](O)[C@H](O[C@@H](CC4CCCCC4)C(=O)O)[C@H]3NC(C)=O)C2)C[C@@H](O[C@@H]2O[C@H](CO)[C@H](O)[C@H](O[C@@H](CC3CCCCC3)C(=O)O)[C@H]2NC(C)=O)[C@@H]1O[C@@H]1O[C@@H](C)[C@@H](O)[C@@H](O)[C@@H]1O` [Compound 17] are within 1.5-fold of each other in Kd: 6 nM for the first, 5.1 nM for the second.

`CC[C@H]1C[C@@H](C(=O)NCCNC(=O)CCOCCOCCOCCOCCOCCOCCOCCOCCOCCOCCOCCOCCOCCOCCOCCOCCOCCOCCOCCOCCOCCC(=O)NCCNC(=O)[C@@H]2C[C@H](CC)[C@@H](O[C@@H]3O[C@@H](C)[C@@H](O)[C@@H](O)[C@@H]3O)[C@H](O[C@@H]3O[C@H](CO)[C@H](O)[C@H](O[C@@H](CC4CCCCC4)C(=O)O)[C@H]3NC(C)=O)C2)C[C@@H](O[C@@H]2O[C@H](CO)[C@H](O)[C@H](O[C@@H](CC3CCCCC3)C(=O)O)[C@H]2NC(C)=O)[C@@H]1O[C@@H]1O[C@@H](C)[C@@H](O)[C@@H](O)[C@@H]1O` [Compound 13] was tested, and the Kd was 4.7 nM.
